Measured values: the supplement of paper PMC10307832

Legend:
Assay in all cases: relative viability (nuclei count vs DMSO), 5 days (fraction); higher = more cells survive
[1] = compound: CC(C)C[C@H](NC(=O)[C@H](CCc1ccccc1)NC(=O)CN1CCOCC1)C(=O)N[C@@H](Cc1ccccc1)C(=O)N[C@@H](CC(C)C)C(=O)[C@@]1(C)CO1 [Carfilzomib]
Method in brief: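 Viability here means nuclei in treated wells divided by nuclei in vehicle wells, reported as the median across plates. Only plates with control CV below 25% and at least one doubling passed. Lung cancer cell lines in 1536-well plates were exposed to five √10-spaced library-drug doses for 5 days and counted from 4× Hoechst images in MetaXpress.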

[2] = compound: CC(C)C[C@H](NC(=O)[C@H](CCc1ccccc1)NC(=O)CN1CCOCC1)C(=O)N[C@@H](Cc1ccccc1)C(=O)N[C@@H](CC(C)C)C(=O)[C@@]1(C)CO1 [Carfilzomib] + COc1cc2c(Oc3ccc(NC(=O)C4(C(=O)Nc5ccc(F)cc5)CC4)cc3F)ccnc2cc1OCCCN1CCOCC1 [Foretinib] (partner 0.25 µM)
Method in brief: (§1)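 The day after seeding in 1536-well plates, lung cancer cell lines were treated by pin tool with a single drug, or with a fixed anchor-drug dose together with five library-drug doses (not always all listed) in √10 steps. After 5 days, a combined fix-and-stain solution (final 0.05% Triton X-100, 1% formaldehyde, 1 ug/ml Hoechst) was added. Nuclei counted on 4× images gave relative viability as treated counts over vehicle counts, reported as the median of duplicate plates.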

[3] = compound: C[C@@H](Oc1cc(-c2cnn(C3CCNCC3)c2)cnc1N)c1c(Cl)ccc(F)c1Cl [Crizotinib] + COc1cccc2cc(-c3nc([C@H]4CC[C@H](C(=O)O)CC4)n4ncnc(N)c34)[nH]c12 [OSI-027] (partner 0.5 µM)
Method in brief: as §1

Cell Line | relative viability ([1]; 0.001 µM) | relative viability ([1]; 0.003162 µM) | relative viability ([1]; 0.01 µM) | relative viability ([1]; 0.03162 µM) | relative viability ([1]; 0.1 µM) | relative viability ([2]; first compound 0.001 µM) | relative viability ([2]; first compound 0.003162 µM) | relative viability ([2]; first compound 0.01 µM) | relative viability ([2]; first compound 0.03162 µM) | relative viability ([2]; first compound 0.1 µM) | relative viability ([3]; first compound 0.01 µM) | relative viability ([3]; first compound 0.03162 µM) | relative viability ([3]; first compound 0.1 µM) | relative viability ([3]; first compound 0.3162 µM) | relative viability ([3]; first compound 1 µM)
NCI-H460 | 0.929 | 1.01 | 1 | 0.739 | 0.0357 | 0.97 | 1.05 | 0.988 | 0.75 | 0.0297 | 0.536 | 0.931 | 0.479 | 0.6 | 0.708
NCI-H2342 | 0.975 | 0.957 | 1.06 | 0.968 | 0.825 | 1.04 | 1.06 | 1.08 | 0.988 | 0.621 | 0.652 | 0.613 | 0.623 | 0.509 | 0.547
NCI-H596 | 0.951 | 0.949 | 0.95 | 0.697 | 0.222 | 0.813 | 0.84 | 0.812 | 0.195 | 0.148 | 0.715 | 0.857 | 0.693 | 0.564 | 0.67
NCI-H441 | 1.2 | 1.19 | 0.432 | 0.151 | 0.118 | 0.878 | 0.977 | 0.61 | 0.199 | 0.349 | 0.569 | 0.553 | 0.601 |  | 0.603
COR-L 105 | 1.06 | 0.931 | 0.962 | 0.318 | 0.26 | 1.31 | 1.13 | 1.05 | 0.779 | 0.26 | 0.577 | 0.803 | 0.657 | 0.562 | 0.728
NCI-H322M | 0.911 | 1.07 | 1.04 | 0.961 | 0.376 | 0.981 | 1.01 | 0.999 | 0.943 | 0.359 | 0.519 | 0.521 | 0.478 | 0.535 | 0.502
HCC-827 | 1.05 | 1.05 | 1.09 | 0.97 | 0.647 | 1.09 | 1.06 | 1.08 | 0.928 | 0.387 | 0.704 | 0.738 | 0.793 | 0.461 | 0.467
NCI-H1623 | 0.972 | 1.12 | 1.04 | 0.885 | 0.33 | 0.838 | 0.906 | 1.14 | 0.455 | 0.514 | 0.439 | 0.435 | 0.454 | 0.378 | 0.4
SW 900 | 0.747 | 0.883 | 0.288 | 0.161 | 0.192 | 1.01 | 0.999 | 0.315 | 0.0988 | 0.116 | 0.499 | 0.507 | 0.581 | 0.509 | 0.568
NCI-H1651 | 0.964 | 1.01 | 0.879 | 0.327 | 0.12 | 0.906 | 0.762 | 0.71 | 0.112 | 0.0981 | 0.546 | 0.852 | 0.727 | 0.73 | 0.8
EKVX | 0.913 | 1 | 1.17 | 0.76 | 0.369 | 0.51 | 0.945 | 1.24 | 0.309 | 0.765 | 0.744 | 0.737 | 0.756 | 0.651 | 0.744
201T | 0.957 | 1.01 | 1.01 | 1.04 | 0.849 | 1.13 | 1.14 | 1.16 | 1.02 | 0.29 | 0.635 | 0.744 | 0.668 | 0.77 | 0.698
NCI-H2228 | 0.975 | 1.15 | 0.905 | 0.157 | 0.101 | 0.902 | 0.883 | 0.633 | 0.0979 | 0.096 | 0.607 | 0.563 | 0.54 | 0.272 | 0.164
NCI-H2009 | 1.07 | 1.05 | 1.02 | 0.44 | 0.0846 | 1.25 | 1.26 | 1.21 | 0.355 | 0.0701 | 0.704 | 0.611 | 0.64 | 0.594 | 0.642
NCI-H1975 | 0.946 | 1.05 | 0.808 | 0.146 | 0.137 |  | 0.859 | 0.621 | 0.0974 | 0.104 | 0.72 | 0.812 | 0.755 | 0.754 | 0.721
NCI-H2347 | 0.971 | 1.08 | 1.03 | 0.511 | 0.393 | 0.958 | 0.909 | 1.43 | 0.698 | 0.181 | 0.375 | 0.324 | 0.417 | 0.386 | 0.414
PC-14 | 1.03 | 1.13 | 1.06 | 0.29 | 0.0816 | 0.979 | 0.958 | 0.996 | 0.826 | 0.081 | 0.826 | 0.898 | 0.8 | 0.867 | 1.03
COR-L23 | 1.06 | 1.13 | 0.846 | 0.0978 | 0.0691 | 0.991 | 1.16 | 0.996 | 0.196 | 0.0831 | 0.742 | 0.73 | 0.674 | 0.76 | 0.723
LK-2 | 0.937 | 1.31 | 0.96 | 0.205 | 0.201 | 1.24 | 1.25 | 1.42 | 0.144 | 0.16 | 0.196 | 0.186 | 0.166 | 0.189 | 0.183
NCI-H358 | 0.926 | 1.03 | 0.953 | 0.154 | 0.133 | 0.688 | 1.01 | 0.63 | 0.0762 | 0.0649 | 0.628 | 0.897 | 0.673 | 0.664 | 0.772
ABC-1 | 0.92 | 0.75 | 0.39 | 0.221 | 0.291 | 0.912 | 0.815 | 0.292 | 0.17 | 0.224 |  | 0.526 | 0.426 | 0.422 | 0.402
